Laboratory results: US8563545B2, “Compound useful for the treatment of degenerative and inflammatory diseases” (Galapagos NV, priority 2009, dated 2013)
Values joined by “and” are separate entries in the source; they are usually repeats but may differ in a detail not shown here. Equal entries are not always repeated.

Key:
TNF release in vivo = test: Septic shock model (LPS-induced TNF release); set-up: species or system mouse; details: BALB/cJ mice, 30 mg/kg, po, LPS 15 μg/kg ip
Method: Injection of lipopolysaccharide (LPS) induces a rapid release of soluble tumour necrosis factor (TNF-alpha) into the periphery. This model was used to analyse prospective blockers of TNF release in vivo. Six BALB/cJ female mice (20 g) per group were treated at the intended dosing once, po. Thirty minutes later, LPS (15 μg/kg; E. Coli serotype 0111:B4) was injected ip. Ninety minutes later, mice were euthanized and blood was collected. Circulating TNF alpha levels were determined using commercially available ELISA kits. Dexamethasone ([…]) was used as a reference anti-inflammatory compound. Selected compounds were tested at one or multiple doses, e.g. 3 and/or 10 and/or 30 mg/kg, po.

[1] = Microsomal stability, rat; assay type: in vitro ADME; details: rat liver microsomes, 3 μM compound
Method: A 10 mM stock solution of compound in DMSO was diluted 1000 fold in a 182 mM phosphate buffer pH7.4 in a 96 deep well plate (Greiner, Cat no. 780285) and pre-incubated at 37° C. 40 μL of deionised water was added to a well of a polypropylene Matrix 2D barcode labelled storage tube (Thermo Scientific) and pre-incubated at 37° C.
A Glucose-6-phophate-dehydrogenase (G6PDH) working stock solution was prepared in 182 mM phosphate buffer pH7.4 and placed on ice before use. A co-factor containing MgCl2, glucose-6-phosphate and NADP+ was prepared in deionised water and placed on ice before use.
A final working solution containing liver microsomes (Xenotech) of a species of interest (human, mouse, rat, dog), previously described G6PDH and co-factors was prepared and this mix was incubated for no longer than 20 minutes at room temperature.
30 μL of the pre-heated compound dilution was added to 40 μL of pre-heated water in the Matrix tubes and 30 μL, of the microsomal mix was added. Final reaction concentrations were 3 μM compound, 1 mg microsomes, 0.4 U/mL GDPDH, 3.3 mM MgCl2, 3.3 mM glucose-6-phosphate and 1.3 mM NADP+.
To measure percentage remaining of compound at time zero MeOH or ACN was added (1:1) to the well before adding the microsomal mix. The plates were sealed with Matrix Sepra Seals™ (Matrix, Cat. No. 4464) and shaken for a few seconds ensure complete mixing of all components.
The samples which were not stopped are incubated at 37° C., 300 rpm and after 1 hr of incubation the reaction was stopped with MeOH or ACN (1:1).
After stopping the reaction the samples were mixed and placed on ice for 30 min to precipitate the proteins. The plates were then centrifuged 30 min at 1200 rcf at 4° C. and the supernatant was transferred to a 96 v-bottom PP plate (Greiner, 651201) for analysis on LCMS.
These plates were sealed with sealing mats (MA96RD-04S) of www.kinesis.co.uk and samples were measured at room temperature on LCMS (ZQ 1525 from Waters) under optimized conditions using Quanoptimize to determine the appropriate mass of the parent molecule.
The samples were analyzed on LCMS with a flow rate of 1 mL/min. Solvent A was 15 mM ammonia and solvent B was methanol or acetonitrile, depending on the stop solution used. The samples were run under positive ion spray on an XBridge C18 […] (2.1×30 mm) column, from Waters.
Peak area from the parent compound at time 0 was considered to be 100% remaining. The percentage remaining after 1 hr incubation was calculated from time 0 and was calculated as the percentage remaining. The solubility of the compound in the final test concentration in buffer is inspected by microscope and results are reported.
The data on microsomal stability are expressed as a percentage of the total amount of compound remaining after 60 min.

Caco2 permeability = assay type: in vitro ADME; details: human; for Papp at 1 h, 10 µM: pH 7.4, Caco-2, 10 μM; for efflux ratio at 1 h, 10 µM: Caco-2, pH 7.4, Papp B>A/Papp A>B
Method: Bi-directional Caco-2 assays were performed as described below. Caco-2 cells were obtained from European Collection of Cell Cultures (ECACC, cat 86010202) and used after a 21 day cell culture in 24-well Transwell plates (Fisher TKT-545-020B).
2×10^5 cells/well were seeded in plating medium consisting of DMEM+GlutaMAXI+1% NEAA+10% FBS (FetalClone II)+1% Pen/Strep. The medium was changed every 2-3 days.
Test and reference compounds (propranolol and rhodamine123 or vinblastine, all purchased from Sigma) were prepared in Hanks' Balanced Salt Solution containing 25 mM HEPES (pH7.4) and added to either the apical (125 μL) or basolateral (600 μL) chambers of the Transwell plate assembly at a concentration of 10 μM with a final DMSO concentration of 0.25%.
50 μM Lucifer Yellow (Sigma) was added to the donor buffer in all wells to assess integrity of the cell layers by monitoring Lucifer Yellow permeation. As Lucifer Yellow (LY) cannot freely permeate lipophilic barriers, a high degree of LY transport indicates poor integrity of the cell layer.
After a 1 hr incubation at 37° C. while shaking at an orbital shaker at 150 rpm, 70 μL aliquots were taken from both apical (A) and basal (B) chambers and added to 100 μL1 50:50 acetonitrile:water solution containing analytical internal standard (0.5 μM carbamazepine) in a 96 well plate.
Concentrations of compound in the samples were measured by high performance liquid-chromatography/mass spectroscopy (LC-MS/MS).
The Efflux ratios, as an indication of active efflux from the apical cell surface, were calculated using the ratio of Papp B>A/Papp A>B.

JAK2 = JAK2 (Homo sapiens (Human), UniProt O60674); test: JAK2 inhibition assay; assay type: biochemical
Chain of JAK2 (O60674 808-1132): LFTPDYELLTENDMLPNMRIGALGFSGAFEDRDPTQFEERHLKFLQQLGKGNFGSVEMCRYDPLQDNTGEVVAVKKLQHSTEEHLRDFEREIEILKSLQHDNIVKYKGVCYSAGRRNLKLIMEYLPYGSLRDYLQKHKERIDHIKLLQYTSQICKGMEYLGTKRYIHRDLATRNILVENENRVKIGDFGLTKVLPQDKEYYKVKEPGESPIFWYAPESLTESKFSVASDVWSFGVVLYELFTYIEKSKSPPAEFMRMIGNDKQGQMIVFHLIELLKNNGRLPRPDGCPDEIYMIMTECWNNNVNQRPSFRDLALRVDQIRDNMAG
Method: After 90 min at 30° C., reactions were stopped by adding of 25 μL/well of 150 mM phosphoric acid. […] Plates were washed 6 times with 300 μL per well of a 75 mM phosphoric acid solution and the bottom of the plates was sealed. 40 μL/well of Microscint-20 was added, the top of the plates was sealed and readout was performed using the Topcount (Perkin Elmer). Kinase activity was calculated by subtracting counts per minute (cpm) obtained in the presence of a positive control inhibitor (10 μM staurosporine) from cpm obtained in the presence of vehicle. The ability of a test compound to inhibit this activity was determined as:
Percentage inhibition=((cpm determined for sample with test compound present−cpm determined for sample with positive control inhibitor)divided by(cpm determined in the presence of vehicle−cpm determined for sample with positive control inhibitor))*100.
Dose dilution series were prepared for the compounds enabling the testing of dose-response effects in the JAK2 assay and the calculation of the IC50 for each compound.

With `O=C(Nc1nc2cccc(-c3ccc(CN4CCS(=O)(=O)CC4)cc3)n2n1)C1CC1` [Compound 1, Cyclopropanecarboxylic acid {5-[4-(1,1-dioxo-1-thiomorpholin-4-ylmethyl)-phenyl]-[1,2,4]triazolo [1,5-a]pyridin-2-yl}-amide] the “activity in septic shock model (circulating TNF alpha)” value (“activity in septic shock model” below) (TNF release in vivo) was “active”, the “percentage of compound remaining after 60 min, Rat” value (from here on “percentage of compound remaining”) [1] was 65.6% and the Papp at 1 h, 10 µM (Caco2 permeability) was 3.33 ×10⁻⁶ cm/s.
In the case of `O=C(Nc1nc2cccc(-c3ccc(CN4CCOCC4)cc3)n2n1)C1CC1` [Compound 2, N-(5-(4-(morpholinomethyl)phenyl)-[1,2,4]triazolo[1,5-a]pyridin-2-yl)cyclopropanecarboxamide], the IC50 (JAK2) is reported as 38.7 nM and 152 nM and 185 nM, the “activity in septic shock model” value (TNF release in vivo) is reported as “active” and the “percentage of compound remaining” value [1] is reported as 38%. For the same molecule, the Papp at 1 h, 10 µM (Caco2 permeability) was 25 ×10⁻⁶ cm/s.
In the case of `O=C(Nc1nc2cccc(-c3ccc(C(=O)N4CCS(=O)(=O)CC4)cc3)n2n1)C1CC1` [Compound 10, Cyclopropanecarboxylic acid {5-[4-(1,1-dioxo-1-thiomorpholine-4-carbonyl)-phenyl]-[1,2,4]triazolo [1,5-a]pyridin-2-yl}-amide], the IC50 (JAK2) is reported as 65.4 nM, the “activity in septic shock model” value (TNF release in vivo) is reported as “active” and the “percentage of compound remaining” value [1] is reported as 89%. The efflux ratio at 1 h, 10 µM (Caco2 permeability) was 97.6 and the Papp at 1 h, 10 µM (Caco2 permeability) was 0.05 ×10⁻⁶ cm/s.
In the case of `O=C(Nc1nc2cccc(-c3ccc(CN4CCC(F)(F)CC4)cc3)n2n1)C1CC1` [Compound 11, Cyclopropanecarboxylic acid {5-[4-(4,4-difluoro-piperidin-1-ylmethyl)-phenyl]-[1,2,4]triazolo [1,5-a]pyridin-2-yl}-amide], the IC50 (JAK2) is reported as 15.5 nM, the “percentage of compound remaining” value [1] is reported as 26% and the efflux ratio at 1 h, 10 µM (Caco2 permeability) is reported as 0.9. The Papp at 1 h, 10 µM (Caco2 permeability) was 36.5 ×10⁻⁶ cm/s.
